The first assay has as its target T1, Tyrosinase (Agaricus bisporus, UniProt O42713).
T1 sequence (O42713 whole entry): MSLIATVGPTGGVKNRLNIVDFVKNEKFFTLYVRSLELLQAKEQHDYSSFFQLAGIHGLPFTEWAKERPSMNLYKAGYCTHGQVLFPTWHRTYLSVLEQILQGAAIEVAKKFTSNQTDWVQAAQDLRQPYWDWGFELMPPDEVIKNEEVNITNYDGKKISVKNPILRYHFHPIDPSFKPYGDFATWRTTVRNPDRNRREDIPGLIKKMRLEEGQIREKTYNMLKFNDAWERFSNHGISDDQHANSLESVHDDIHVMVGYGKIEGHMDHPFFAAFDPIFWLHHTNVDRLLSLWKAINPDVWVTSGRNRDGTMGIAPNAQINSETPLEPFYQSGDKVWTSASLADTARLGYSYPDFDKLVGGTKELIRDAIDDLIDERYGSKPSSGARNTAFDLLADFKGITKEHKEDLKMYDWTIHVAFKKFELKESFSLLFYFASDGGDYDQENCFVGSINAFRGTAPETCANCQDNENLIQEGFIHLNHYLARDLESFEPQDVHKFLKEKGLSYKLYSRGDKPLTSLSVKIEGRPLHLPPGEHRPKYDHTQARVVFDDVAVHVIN
Put plainly: Inhibition of mushroom tyrosinase assessed as oxidation of L-dopa by spectrophotometric analysis.
Usually IC50 stands for the concentration at which inhibition is half-maximal. On to `COc1ccc2c(c1CCO)O[C@@H](c1ccc(O)cc1O)CC2`, for which the IC50 amounted to 120 nM.

For `COc1ccc2c(c1C/C=C(\C)CO)O[C@H](c1ccc(O)cc1O)CC2` [MORUSYUNNANSINS E], the IC50 amounted to 1430 nM.

As to `CC(C)=CCc1c(O)ccc2c1O[C@H](c1ccc(O)cc1O)CC2` [MORUSYUNNANSINS F], the IC50 was found to be 150 nM.

Another assay addresses T2, Tyrosinase (Agaricus bisporus) (UniProt O42713).
T2 sequence (whole entry): T1 sequence (O42713 whole entry)
Put plainly: Inhibition of mushroom tyrosinase assessed as oxidation of L-dopa at 25 uM by spectrophotometric analysis.
Broadly, the inhibition is the drop in the measured response relative to a control, in per cent. For `COc1ccc([C@@H]2CCc3ccc(O)c(CC=C(C)C)c3O2)c(O)c1`, the inhibition was less than 50%.

In the case of `CC(C)=CCc1c(O)ccc2c1O[C@H](c1ccc(O)cc1)CC2`, the inhibition was less than 50%.

For the compound `COc1ccc(CCC(c2ccc(O)cc2O)c2cc([C@@H]3CCc4ccc(OC)c(CC=C(C)C)c4O3)c(O)cc2O)c(O)c1CC=C(C)C` (some centres not stated), the inhibition is less than 50%.

On to `COc1ccc(CCC(c2ccc(O)cc2O)c2cc([C@H]3CCc4ccc(OC)c(CC=C(C)C)c4O3)c(O)cc2O)c(O)c1CC=C(C)C` (some centres not stated), for which the inhibition is less than 50%.
